Reference: PubChem BioAssay (NCI)
Several values for one entry are separate records, joined by “and”; a condition that tells them apart may be missing. Equal entries are not always repeated.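 All cell lines were grown in 96-well plates and treated with compound for 48 hours. GI50 marks 50% less growth. TGI is the concentration that stops growth completely.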

Columns and labels:
Experiment in all cases: growth of human tumour cells (NCI), 48 h
BT-549 breast = test system: BT-549 breast
DU-145 prostate = test system: DU-145 prostate
HS 578T breast = test system: HS 578T breast
MCF7 breast = test system: MCF7 breast
PC-3 prostate = test system: PC-3 prostate

Row | Compound | GI50 (BT-549 breast) | TGI (BT-549 breast) | GI50 (DU-145 prostate) | TGI (DU-145 prostate) | GI50 (HS 578T breast) | TGI (HS 578T breast) | GI50 (MCF7 breast) | TGI (MCF7 breast) | GI50 (PC-3 prostate) | TGI (PC-3 prostate)
1 | C/C(=C\c1c[nH]c2ccccc12)[N+](=O)[O-] | 11 µM | 24 µM | 3.73 µM | 15.5 µM | 7.61 µM | 43.8 µM | 2.67 µM | 28 µM | 4.07 µM | 15.4 µM
2 | CO[C@H]1CC[C@@]2(C)C(=CC[C@H]3[C@@H]4C[C@H](O)C[C@@]4(C)CC[C@@H]32)C1 | 7.38 µM | 22.8 µM | 4.37 µM | 15.2 µM | 2.16 µM | 9.41 µM | 5.32 µM | 25.3 µM | 3.91 µM | 30.3 µM
3 | CC[C@H](C)C(=O)O[C@H]1CCC=C2C=C[C@H](C)C(CCC3C[C@@H](O)CC(=O)O3)[C@H]21 (stereo not given in full) | 17.2 µM | > 100 µM | 74.8 µM | > 100 µM | 5.19 µM | > 100 µM | 39.5 µM | > 100 µM | 1.48 µM | > 100 µM
4 | Cc1ccc2sc3c(NCCCNCCO)nc4ccccc4c3c(=O)c2c1 | 1.54 µM | 3.02 µM | 1.71 µM | 3.15 µM | 1.63 µM | 3.7 µM | 1.61 µM | 3.17 µM | 1.38 µM | 2.87 µM
5 | C=C[C@]1(C)C=C2C(=O)[C@@]3(O)OC(=O)[C@@]4(CCCC(C)(C)[C@H]34)[C@@]2(O)CC1 | 1.07 µM | 2.48 µM | 1.67 µM | 3.69 µM | 2.77 µM | > 100 µM | 1.42 µM | 6.96 µM | 1.45 µM | 5.08 µM
6 | CCOC(=O)c1c(Cl)c2c(n1Cc1cc(OC)cc(OC)c1)-c1oncc1CCC2 | 19.6 µM | > 100 µM | 0.35 µM | 97.7 µM | 0.451 µM | > 100 µM | 0.168 µM | > 100 µM | 0.293 µM | > 100 µM
7 | Nc1nccc(Nc2ccc(S(N)(=O)=O)cc2)n1 |  | > 100 µM |  | > 100 µM |  | > 100 µM |  | > 100 µM |  | > 100 µM
8 | CC(C)(O)[C@H]1[C@@H]2OC(=O)[C@H]1[C@]1(O)C[C@H]3OC34C(=O)O[C@H]2[C@@]41C (stereo not given in full) (tested in a mixture with another compound) |  | > 100 µM |  | > 100 µM |  | > 100 µM |  | > 100 µM |  | > 100 µM
9 | Cc1ccc(C(=O)NC2CCCCC2)cc1-c1ccc(C(=O)NCC2CC2)cc1 | > 22.6 µM | > 25 µM | > 25 µM | > 25 µM | > 20.2 µM | > 25 µM | > 23.9 µM | > 25 µM | > 22.8 µM | > 25 µM
10 | O=C(/C=C/c1ccccc1)CCC1C(=O)NC(=O)NC1=O |  | > 100 µM |  | > 100 µM |  | > 100 µM |  | > 100 µM |  | > 100 µM
11 | O=C(O)CCC1CCC(c2cc(F)ccc2F)(S(=O)(=O)c2ccc(Cl)cc2)CC1 (stereo not given) | 10.9 µM and 97.8 µM | 43.1 µM and > 100 µM | 93.4 µM and > 100 µM | > 100 µM | 17.8 µM and 49.3 µM | 55.4 µM and > 100 µM | 29.2 µM and > 81.4 µM | > 100 µM | 75.8 µM and > 100 µM | > 100 µM
